Measurements from ChEMBL document CHEMBL4229455, “Synthesis and anticancer activity of novel bisindolylhydroxymaleimide derivatives with potent GSK-3 kinase inhibition” (Bioorg Med Chem, 2018).

What was measured:
SK-MEL-2 = test: Cytotoxicity against human SK-MEL-2 cells assessed as cell growth at 10 uM after 48 hrs by SRB assay relative to control; assay type: functional; settings: SK-MEL-2, 48 h, read-out: Activity
PC-3 = test: Cytotoxicity against human PC3 cells assessed as cell growth at 10 uM after 48 hrs by SRB assay relative to control; assay type: functional; settings: PC-3, 48 h, read-out: Activity
A549 = test: Cytotoxicity against human A549 cells assessed as cell growth at 10 uM after 48 hrs by SRB assay relative to control; assay type: functional; settings: A549, 48 h, read-out: Activity
NCI-H460 = test: Cytotoxicity against human NCI-H460 cells assessed as cell growth at 10 uM after 48 hrs by SRB assay relative to control; assay type: functional; settings: NCI-H460, 48 h, read-out: Activity
LOX IMVI = test: Cytotoxicity against human LOXIMVI cells assessed as cell growth at 10 uM after 48 hrs by SRB assay relative to control; assay type: functional; settings: read-out: Activity
NCI-H226 = test: Cytotoxicity against human NCI-H226 cells assessed as cell growth at 10 uM after 48 hrs by SRB assay relative to control; assay type: functional; settings: NCI-H226, 48 h, read-out: Activity
[1] = target: T1, Serine/threonine-protein kinase haspin (Homo sapiens, UniProt Q8TF76); test: Inhibition of recombinant human haspin kinase domain expressed in bacteria using histone H3 (1 to 21 residues) peptide as substrate in presence of [gamma-33P]ATP
T1 sequence (Q8TF76 whole entry): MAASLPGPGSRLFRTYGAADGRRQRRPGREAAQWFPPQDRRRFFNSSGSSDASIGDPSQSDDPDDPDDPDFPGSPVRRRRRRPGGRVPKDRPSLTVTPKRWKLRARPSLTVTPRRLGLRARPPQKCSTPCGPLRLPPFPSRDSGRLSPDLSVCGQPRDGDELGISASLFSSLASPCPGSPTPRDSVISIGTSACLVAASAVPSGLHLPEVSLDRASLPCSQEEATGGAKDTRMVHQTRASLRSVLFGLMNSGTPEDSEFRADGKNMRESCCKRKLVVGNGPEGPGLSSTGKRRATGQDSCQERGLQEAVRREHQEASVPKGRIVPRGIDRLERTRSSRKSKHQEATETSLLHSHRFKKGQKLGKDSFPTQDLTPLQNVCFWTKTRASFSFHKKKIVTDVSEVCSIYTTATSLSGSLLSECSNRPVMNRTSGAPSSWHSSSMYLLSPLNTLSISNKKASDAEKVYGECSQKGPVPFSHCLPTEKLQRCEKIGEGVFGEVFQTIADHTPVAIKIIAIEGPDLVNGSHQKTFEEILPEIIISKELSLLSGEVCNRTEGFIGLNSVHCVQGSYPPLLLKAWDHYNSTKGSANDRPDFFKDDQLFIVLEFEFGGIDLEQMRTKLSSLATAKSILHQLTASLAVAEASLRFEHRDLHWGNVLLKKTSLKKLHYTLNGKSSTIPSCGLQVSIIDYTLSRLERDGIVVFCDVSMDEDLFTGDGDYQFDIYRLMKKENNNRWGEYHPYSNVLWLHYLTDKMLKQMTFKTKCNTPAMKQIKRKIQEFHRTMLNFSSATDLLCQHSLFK

UACC-62 = test: Cytotoxicity against human UACC62 cells assessed as cell growth at 10 uM after 48 hrs by SRB assay relative to control; assay type: functional; settings: UACC-62, 48 h, read-out: Activity
UACC-257 = test: Cytotoxicity against human UACC257 cells assessed as cell growth at 10 uM after 48 hrs by SRB assay relative to control; assay type: functional; settings: UACC-257, 48 h, read-out: Activity
TK-10 = test: Cytotoxicity against human TK10 cells assessed as cell growth at 10 uM after 48 hrs by SRB assay relative to control; assay type: functional; settings: TK-10, 48 h, read-out: Activity
CDK2/Cyclin A2 = CDK2/Cyclin A2 (Homo sapiens, UniProt P24941); test: Inhibition of full length human CDK2/cyclin A using histone H1 as substrate in presence of [gamma-33P]ATP; assay type: protein-complex assay
SN12C = test: Cytotoxicity against human SN12C cells assessed as cell growth at 10 uM after 48 hrs by SRB assay relative to control; assay type: functional; settings: read-out: Activity
HCT-15 = test: Cytotoxicity against human HCT15 cells assessed as cell growth at 10 uM after 48 hrs by SRB assay relative to control; assay type: functional; settings: HCT-15, 48 h, read-out: Activity
Aurora kinase B [2] = target: T2, Aurora kinase B (Homo sapiens, UniProt Q96GD4); test: Inhibition of recombinant full length human aurora B expressed in baculovirus infected Sf9 insect cells assessed as residual activity at 10 uM using MBP as substrate in presence of [gamma-33P]ATP
T2 sequence (Q96GD4 whole entry): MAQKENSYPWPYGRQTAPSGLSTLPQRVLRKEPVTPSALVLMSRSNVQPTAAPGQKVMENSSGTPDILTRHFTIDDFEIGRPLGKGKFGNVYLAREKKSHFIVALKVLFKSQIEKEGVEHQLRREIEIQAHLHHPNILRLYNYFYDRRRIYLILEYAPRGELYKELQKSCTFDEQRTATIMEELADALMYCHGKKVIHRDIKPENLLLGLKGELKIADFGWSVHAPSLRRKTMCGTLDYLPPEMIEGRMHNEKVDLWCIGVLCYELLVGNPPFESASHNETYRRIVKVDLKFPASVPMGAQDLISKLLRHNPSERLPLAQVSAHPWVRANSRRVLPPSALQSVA

OVCAR-4 = test: Cytotoxicity against human OVCAR4 cells assessed as cell growth at 10 uM after 48 hrs by SRB assay relative to control; assay type: functional; settings: OVCAR-4, 48 h, read-out: Activity
A498 = test: Cytotoxicity against human A498 cells assessed as cell growth at 10 uM after 48 hrs by SRB assay relative to control; assay type: functional; settings: A498, 48 h, read-out: Activity
[3] = target: Glycogen synthase kinase-3 (Sus scrofa) (UniProt B2LUN4+I6LNT8); test: Inhibition of domestic porcine brain full length GSK-3alpha/beta assessed as residual activity at 10 uM using GS-1 as substrate in presence of [gamma-33P]ATP; settings: Sus scrofa domesticus
Aurora kinase B [4] = target: T2, Aurora kinase B; test: Inhibition of recombinant full length human aurora B expressed in baculovirus infected Sf9 insect cells using MBP as substrate in presence of [gamma-33P]ATP
[5] = target: Serine/threonine-protein kinase pim-1 (Homo sapiens, UniProt P11309); test: Inhibition of recombinant full length human PIM1 expressed in bacteria using histone H1 as substrate in presence of [gamma-33P]ATP
Serine/threonine-protein kinase pim-1, sequence (P11309 whole entry): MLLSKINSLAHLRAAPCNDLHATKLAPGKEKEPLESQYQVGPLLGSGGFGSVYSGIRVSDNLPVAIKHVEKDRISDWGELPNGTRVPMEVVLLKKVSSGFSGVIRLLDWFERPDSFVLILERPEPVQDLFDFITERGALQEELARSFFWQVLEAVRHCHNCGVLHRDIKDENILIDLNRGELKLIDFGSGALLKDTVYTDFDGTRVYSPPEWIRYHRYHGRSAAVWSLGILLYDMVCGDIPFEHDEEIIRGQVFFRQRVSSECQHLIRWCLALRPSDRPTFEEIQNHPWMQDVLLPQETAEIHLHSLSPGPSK

BT-549 = test: Cytotoxicity against human BT549 cells assessed as cell growth at 10 uM after 48 hrs by SRB assay relative to control; assay type: functional; settings: BT-549, 48 h, read-out: Activity
SR = test: Cytotoxicity against human SR cells assessed as cell growth at 10 uM after 48 hrs by SRB assay relative to control; assay type: functional; settings: read-out: Activity
MCF7 = test: Cytotoxicity against human MCF7 cells assessed as cell growth at 10 uM after 48 hrs by SRB assay relative to control; assay type: functional; settings: MCF7, 48 h, read-out: Activity
[6] = target: T3, Serine/threonine-protein kinase haspin (Homo sapiens) (UniProt Q8TF76); test: Inhibition of recombinant human haspin kinase domain expressed in bacteria assessed as residual activity at 10 uM using histone H3 (1 to 21 residues) peptide as substrate in presence of [gamma-33P]ATP
T3 sequence (whole entry): T1 sequence (Q8TF76 whole entry)

NCI-H23 = test: Cytotoxicity against human NCI-H23 cells assessed as cell growth at 10 uM after 48 hrs by SRB assay relative to control; assay type: functional; settings: NCI-H23, 48 h, read-out: Activity
[7] = target: Dual specificity tyrosine-phosphorylation-regulated kinase 1A (Rattus norvegicus, UniProt Q63470); test: Inhibition of recombinant rat DYRK1A kinase domain expressed in bacteria using KKISGRLSPIMTEQ as substrate in presence of [gamma-33P]ATP

| Compound | growth at 10 µM (SK-MEL-2) [%] | growth at 10 µM (PC-3) [%] | growth at 10 µM (A549) [%] | growth at 10 µM (NCI-H460) [%] | growth at 10 µM (LOX IMVI) [%] | growth at 10 µM (NCI-H226) [%] | IC50 [1] [µM] | growth at 10 µM (UACC-62) [%] | growth at 10 µM (UACC-257) [%] | growth at 10 µM (TK-10) [%] | IC50 (CDK2/Cyclin A2) [µM] | growth at 10 µM (SN12C) [%] | growth at 10 µM (HCT-15) [%] | Activity (Aurora kinase B [2]) [%] | growth at 10 µM (OVCAR-4) [%] | growth at 10 µM (A498) [%] | Activity [3] [%] | IC50 (Aurora kinase B [4]) [µM] | IC50 [5] [µM] | growth at 10 µM (BT-549) [%] | other results |
| --- | --- | --- | --- | --- | --- | --- | --- | --- | --- | --- | --- | --- | --- | --- | --- | --- | --- | --- | --- | --- | --- |
| O=C(O)CCCCCn1cc(C2=C(c3c[nH]c4ccccc34)C(=O)N(O)C2=O)c2ccccc21 | 99.4 | 84.9 | 98.2 | 103 | 80.4 | 92.5 | > 10 | 95.7 | 111 | 99 | > 10 | 105 | 97.3 | 63 | 113 | 88.5 | 8 | > 10 | > 10 | 99.9 | growth at 10 µM (SR): 100%; growth at 10 µM (MCF7): 102%; Activity [6]: 113%; growth at 10 µM (NCI-H23): 97.6%; IC50 [7]: 2 µM |
| O=C1C2=C(C(=O)N1O)c1cn(c3ccccc13)CCCCCCn1cc2c2ccccc21 | 120 | 95.8 | 108 | 100 | 79.3 | 101 | > 10 | 100 | 106 | 105 | > 10 | 106 | 108 | 97 | 113 | 88.3 | 48 | > 10 | > 10 | 97.6 | growth at 10 µM (SR): 91.9%; growth at 10 µM (MCF7): 99.6%; Activity [6]: 134%; growth at 10 µM (NCI-H23): 99.7%; IC50 [7]: > 10 µM |
| Cn1cc(C2=C(c3cn(CCCCCC#N)c4ccccc34)C(=O)N(O)C2=O)c2ccccc21 | 94.1 | 80.5 | 95.8 | 99.3 | 60.2 | 77.8 | > 10 | 82 | 110 | 116 | > 10 | 102 | 91.2 | 71 | 116 | 76.7 | 8 | > 10 | > 10 | 81.4 | growth at 10 µM (SR): 67.2%; growth at 10 µM (MCF7): 77.7%; Activity [6]: 114%; growth at 10 µM (NCI-H23): 88.1%; IC50 [7]: 5 µM |
